Measured values taken from patent US20250129021A1, “SMALL MOLECULE PROTEIN SYNTHESIS MODULATORS” (Interdict Bio, Inc., priority 2023, published 2025).
pIC50: −log10 of the molar value. Like-named read-outs stand apart in the source and are kept apart here.

How the values were obtained:
Type in all cases: biochemical
CCNTB1 = test: In vitro transcription-translation (IVTT) assay, CCNTB1 reporter; conditions: HeLa S3 lysate, sfGFP/mCherry ratio
Method: In vitro transcription-translation assay setup: Each assay includes a master mix containing lysate and shared components, a 96-well plate containing compound titrations for testing, a 96-well DNA plate with reporter constructs to be tested, 96-well skirted PCR plates, and 96-well flat-bottom, black, fluorescent assay plates. Reaction materials setup: (A) Master mix—15 mL conical tube (3 mL of HeLa S3 Lysate described above; 0.6 mL of ThermoFisher Accessory Proteins (#88882); 1.2 ml of ThermoFisher Reaction Mix (#88882); 0.54 mL of nuclease-free Water); (B) 96-Well Master Mix+Compound Plate (Half-log dilutions (30 μM−0.1 μM) of 4 compounds of interest are prepared in 100% DMSO); 96-Well DNA Plate (Five DNA constructs are plated into single columns within the plate. Row 1 of the column contains nuclease free H2O, all other wells contain 110 ng/μL plasmid DNA). Reactions are started by mixing 155 μL of master mix and 3.5 μL of compound serial dilutions, then 9.1 μL of master mix+compound mixture is aliquoted across 5 96-well plates. Reactions begin with final addition of 2 μL of DNA for a 11.1 μL reaction volume in each well. The entire plate is sealed, and incubated for 2 hrs at 30° C. After 2 hrs, quench the assay using 45 μL of PBS, and transfer 50 μL to a flat-bottom black microplate Quantify the sfGFP and mCherry signals from each well on each plate, taking 3 reads of each plate, and perform data analysis below.
In vitro transcription-translation assay data analysis: Each plate is read three times in channels for both sfGFP and mCherry signals. The average signal across these 3 reads is then calculated for further analysis. Control wells containing no DNA reporter are subtracted from reporter wells in the same column to remove auto-fluorescence of the lysate. Then, the ratio of sfGFP/mCherry is calculated per well, and these ratios are averaged across the triplicate experiments on the same plate. Finally, the ratio of each titration concentration is normalized to the no drug control to create the normalized stalling metric. The error on this measurement is determined by propagating error through the averaging and normalization steps. Values are plotted and fit for IC50 determination for each test sequence and titration of compound.

MCL-1 = test: In vitro transcription-translation (IVTT) assay, MCL-1 reporter; conditions: HeLa S3 lysate, sfGFP/mCherry ratio
In short: (§1)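 Reporter: mCherry, P2A, then 3×FLAG-target peptide-sfGFP fusion, IRES-initiated; HeLa S3 lysate IVTT; cpd dilutions 30 μM−0.1 μM half-log in 100% DMSO (dilution-plate conc); DNA added last; 2 h, 30° C; PBS quench.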

MYC = test: In vitro transcription-translation (IVTT) assay, MYC reporter; conditions: HeLa S3 lysate, 2 hrs at 30° C.
In short: as §1

CCND1 = test: In vitro transcription-translation (IVTT) assay, CCND1 reporter; conditions: HeLa S3 lysate, sfGFP/mCherry ratio
In short: as §1

KRAS G12D = test: In vitro transcription-translation (IVTT) assay, KRAS G12D reporter; conditions: HeLa S3 lysate, sfGFP/mCherry ratio, 2 hrs at 30° C.
In short: as §1

ALK = test: In vitro transcription-translation (IVTT) assay, ALK reporter; conditions: HeLa S3 lysate, sfGFP/mCherry ratio, 2 hrs at 30° C.
In short: as §1

[1] = IVTT assay, read-out: MCL1 IC50
[2] = IVTT assay, MYC reporter, normalized sfGFP/mCherry ratio, half-log dilutions 30 μM-0.1 μM

pIC50 (CCNTB1)	pIC50 (MCL-1; [1])	pIC50 (CCND1; IVTT assay)	pIC50 (KRAS G12D)	pIC50 (MYC; sfGFP/mCherry ratio)	pIC50 (CCND1; 2 hrs at 30° C.)	pIC50 (ALK)	pIC50 (MCL-1; 2 hrs at 30° C.)	Compound	pIC50 (MYC; [2])
> 5.00	> 5.00	> 5.00	–	–	–	–	–	O=C(NCC[C@@H]1CCCN1)O[C@@H]1[C@@H](O)CN[C@@H]1Cc1ccc(-c2cncs2)cc1 [V192113, (2R,3S,4S)-4-hydroxy-2-{[4-(1,3-thiazol-5-yl)phenyl]methyl}pyrrolidin-3-yl N-{2-[(2S)-pyrrolidin-2-yl]ethyl}carbamate]	> 5.00
> 5.00	> 5.00	> 5.00	–	–	–	–	–	O=C(NCc1cccc(F)c1)O[C@@H]1[C@@H](O)CN[C@@H]1Cc1ccc(-c2cn3ccccc3n2)cc1 [V192139]	> 5.00
> 5.00	> 5.00	> 5.00	–	–	–	–	–	O=C(NCC(F)F)O[C@@H]1[C@@H](O)CN[C@@H]1Cc1ccc(-c2cnco2)cc1 [V192264, (2R,3S,4S)-4-hydroxy-2-(4-(oxazol-5-yl)benzyl)pyrrolidin-3-yl (2,2-difluoroethyl)carbamate]	> 5.00
4.70 to 5.00	< 4.52	< 4.52	–	–	–	–	–	O=C(NCc1cccc(F)c1)O[C@@H]1[C@@H](O)CN[C@@H]1Cc1ccc(-c2nnc(C(F)(F)F)s2)cc1 [V192102, (2R,3S,4S)-4-hydroxy-2-({4-[5-(trifluoromethyl)-1,3,4-thiadiazol-2-yl]phenyl}methyl)pyrrolidin-3-yl N-[(3-fluorophenyl)methyl]carbamate]	4.70 to 5.00
–	–	–	< 4.52	4.70 to 5.00	4.52 to 4.70	> 5.00	–	COc1ccc(C[C@H]2NC[C@H](O)[C@H]2OC(=O)NCCc2nc3ccccc3[nH]2)cc1 [V187820, (2R,3S,4S)-4-hydroxy-2-[(4-methoxyphenyl)methyl]pyrrolidin-3-yl N-[2-(1H-1,3-benzodiazol-2-yl)ethyl]carbamate]	–
–	–	–	4.52 to 4.70	> 5.00	4.70 to 5.00	> 5.00	–	COc1ccc(C[C@H]2NC[C@H](O)[C@H]2OC(=O)NCc2ncc[nH]2)cc1 [V187815, (2R,3S,4S)-4-hydroxy-2-[(4-methoxyphenyl)methyl]pyrrolidin-3-yl N-(1H-imidazol-2-ylmethyl)carbamate]	–
> 5.00	–	> 5.00	–	–	–	–	–	COc1ccc(C[C@H]2NC[C@H](O)[C@H]2OC(=O)NCCC2(N)CC2)cc1 [V191989, (2R,3S,4S)-4-hydroxy-2-(4-methoxybenzyl)pyrrolidin-3-yl (2-(1-aminocyclopropyl)ethyl)carbamate]	> 5.00
–	–	–	> 5.00	–	> 5.00	> 5.00	> 5.00	COc1ccc(C[C@H]2NC[C@H](O)[C@H]2OC(=O)NCCCCO)cc1 [V187586, (2R,3S,4S)-4-hydroxy-2-[(4-methoxyphenyl)methyl]pyrrolidin-3-yl N-(4-hydroxybutyl)carbamate]	–
–	–	–	< 4.52	4.52 to 4.70	< 4.52	> 5.00	–	COc1ccc(C[C@H]2NC[C@H](O)[C@H]2OC(=O)NCCc2ncc(C)[nH]2)cc1 [V187818, (2R,3S,4S)-4-hydroxy-2-[(4-methoxyphenyl)methyl]pyrrolidin-3-yl N-[2-(4-methyl-3H-imidazol-2-yl)ethyl]carbamate]	–
–	–	–	> 5.00	> 5.00	> 5.00	> 5.00	> 5.00	COc1ccc(C[C@H]2NC[C@H](O)[C@H]2OC(=O)NCc2cocn2)cc1 [V187767, (2R,3S,4S)-4-hydroxy-2-[(4-methoxyphenyl)methyl]pyrrolidin-3-yl N-(1,3-oxazol-4-ylmethyl)carbamate]	–
–	–	–	> 5.00	> 5.00	> 5.00	> 5.00	> 5.00	COc1ccc(C[C@H]2NC[C@H](O)[C@H]2OC(=O)NCCCN)cc1 [V187591]	–
–	–	–	< 4.52	4.70 to 5.00	< 4.52	> 5.00	–	COc1ccc(C[C@H]2NC[C@H](O)[C@H]2OC(=O)NCCc2nc3ccc(Cl)cc3[nH]2)cc1 [V187821, (2R,3S,4S)-4-hydroxy-2-[(4-methoxyphenyl)methyl]pyrrolidin-3-yl N-[2-(5-chloro-3H-1,3-benzodiazol-2-yl)ethyl]carbamate]	–
–	–	–	< 4.52	4.52 to 4.70	< 4.52	> 5.00	–	COc1ccc(C[C@H]2NC[C@H](O)[C@H]2OC(=O)NCCc2ncc[nH]2)cc1 [V187816, (2R,3S,4S)-4-hydroxy-2-[(4-methoxyphenyl)methyl]pyrrolidin-3-yl N-[2-(1H-imidazol-2-yl)ethyl]carbamate]	–
< 4.52	–	< 4.52	–	–	–	–	–	O=C(NCC[C@H]1CCCN1)O[C@@H]1[C@@H](O)CN[C@@H]1Cc1ccc(-c2ccc(S(F)(F)(F)(F)F)cc2)cc1 [V192039, (2R,3S,4S)-4-hydroxy-2-{[4′-(pentafluoro-lambda6-sulfanyl)-[1,1′-biphenyl]-4-yl]methyl}pyrrolidin-3-yl N-{2-[(2R)-pyrrolidin-2-yl]ethyl}carbamate]	< 4.52
–	–	–	> 5.00	> 5.00	> 5.00	> 5.00	> 5.00	COc1ccc(C[C@H]2NC[C@H](O)[C@H]2OC(=O)NCCCCCO)cc1 [V187587, (2R,3S,4S)-4-hydroxy-2-[(4-methoxyphenyl)methyl]pyrrolidin-3-yl N-(5-hydroxypentyl)carbamate]	–
< 4.52	–	< 4.52	–	–	–	–	–	O=C(NCC[C@H]1CCCN1)O[C@@H]1[C@@H](O)CN[C@@H]1Cc1ccc(-c2ccc(C(F)(F)F)cc2)cc1 [V192038, (2R,3S,4S)-4-hydroxy-2-{[4′-(trifluoromethyl)-[1,1′-biphenyl]-4-yl]methyl}-pyrrolidin-3-yl N-{2-[(2R)-pyrrolidin-2-yl]ethyl}carbamate; Trifluoroacetic Acid]	< 4.52
> 5.00	–	–	–	–	–	–	–	O=C(NCC[C@H]1CCCN1)O[C@@H]1[C@@H](O)CN[C@@H]1Cc1ccc(-c2ccc(F)c(F)c2)cc1 [V192037, (2R,3S,4S)-2-({3′,4′-difluoro-[1,1′-biphenyl]-4-yl}methyl)-4-hydroxypyrrolidin-3-yl N-{2-[(2R)-pyrrolidin-2-yl]ethyl}carbamate]	4.70 to 5.00
–	–	–	> 5.00	> 5.00	> 5.00	> 5.00	–	C#CCNC(=O)O[C@@H]1[C@@H](O)CN[C@@H]1Cc1ccc(OC)cc1 [V0074, (2R,3S,4S)-4-hydroxy-2-[(4-methoxyphenyl)methyl]pyrrolidin-3-yl N-(prop-2-yn-1-yl)carbamate]	–
> 5.00	–	4.70 to 5.00	–	–	–	–	–	O=C(NCC[C@H]1CCCN1)O[C@@H]1[C@@H](O)CN[C@@H]1Cc1ccc(-c2ccccc2)cc1 [V192036, (2R,3S,4S)-2-{[1,1′-biphenyl]-4-ylmethyl}-4-hydroxypyrrolidin-3-yl N-{2-[(2R)-pyrrolidin-2-yl]ethyl}carbamate]	> 5.00

Compound	pIC50 (CCNTB1)	pIC50 (MCL-1; [1])	pIC50 (CCND1; IVTT assay)	pIC50 (KRAS G12D)	pIC50 (MYC; sfGFP/mCherry ratio)	pIC50 (CCND1; 2 hrs at 30° C.)	pIC50 (ALK)	pIC50 (MCL-1; 2 hrs at 30° C.)	pIC50 (MYC; [2])
COC1CCC(CC2NCC(O)C2OC(O)NCCOCC2CNNN2)CC1 (centres unmarked) [V187723, 4-[hydroxy({[2-(1,2,3-triazolidin-4-ylmethoxy)ethyl]amino})methoxy]-5-[(4-methoxycyclohexyl)methyl]pyrrolidin-3-ol; trifluoroacetic acid]	–	–	–	< 4.52	4.70 to 5.00	4.52 to 4.70	> 5.00	–	–
COc1ccc(C[C@H]2NC[C@H](O)[C@H]2OC(=O)NCCc2ccon2)cc1 [V187700, (2R,3S,4S)-4-hydroxy-2-[(4-methoxyphenyl)methyl]pyrrolidin-3-yl N-[2-(1,2-oxazol-3-yl)ethyl]carbamate; trifluoroacetic acid]	–	–	–	> 5.00	> 5.00	> 5.00	> 5.00	> 5.00	–
COc1ccc(C[C@H]2NC[C@H](O)[C@H]2OC(=O)NCCCCCn2ccnc2)cc1 [V187636, (2R,3S,4S)-4-hydroxy-2-[(4-methoxyphenyl)methyl]pyrrolidin-3-yl N-[5-(imidazol-1-yl)pentyl]carbamate; trifluoroacetic acid]	–	–	–	> 5.00	> 5.00	–	> 5.00	> 5.00	–
